The structures appear in SMILES notation. ≈ marks a conversion by molar mass, not a printed value. Numbered stars: 1 amine (or outer) side, 2 acyl side, 3 side chain; on linkers, the order of the positions; unused ones are H or OH. Square brackets hold non-standard residues; d marks the D form. Peptide text beside a SMILES is read from it. * marks the point of attachment. X1 = CC(C)(C(=O)c1ccc(C(F)(F)F)cc1)C(=O)*; βPro(3R) = O=C([C@@H]1CCN([*:1])C1)[*:2]; Phe(ol) = N[C@H](CO)Cc1ccccc1; Aib = CC(C)(N)C(=O)O

Format in all cases: functional
For experiment [1], the system named is Aspergillus niger. Description: Antibacterial activity against Aspergillus niger ATCC 9029 incubated for 24 hrs by broth microdilution method.
Experiment [2] deals with Escherichia coli. Description: Antibacterial activity against Escherichia coli ATCC 25922 incubated for 24 hrs by broth microdilution method.
Experiment [3] deals with Pseudomonas aeruginosa. The experiment can be described thus: Antibacterial activity against Pseudomonas aeruginosa ATCC 25619 incubated for 24 hrs by broth microdilution method.
The test system of experiment [4] is Bacillus subtilis. Description: Antibacterial activity against Bacillus subtilis ATCC 6051 incubated for 24 hrs by broth microdilution method.
The subject of experiment [5] is Candida albicans. Description: Antifungal activity against Candida albicans ATCC 2091 incubated for 24 hrs by broth microdilution method.
The test system of experiment [6] is Staphylococcus aureus. The experiment can be described thus: Antibacterial activity against Staphylococcus aureus ATCC 12598 incubated for 24 hrs by broth microdilution method.
The subject of experiment [7] is Staphylococcus aureus. Description: Antibacterial activity against Staphylococcus aureus assessed as inhibition zone at 1 mg/ml measured after overnight incubation by disc diffusion method. Conditions: read-out: IZ.
The test system of experiment [8] is Bacillus subtilis. The experiment can be described thus: Antibacterial activity against Bacillus subtilis assessed as inhibition zone at 1 mg/ml measured after overnight incubation by disc diffusion method. Conditions: read-out: IZ.
In experiment [9] the test system is Escherichia coli. Description: Antibacterial activity against Escherichia coli assessed as inhibition zone at 1 mg/ml measured after overnight incubation by disc diffusion method. To be noted: read-out: IZ.
Experiment [10] concerns Pseudomonas aeruginosa. Description: Antibacterial activity against Pseudomonas aeruginosa assessed as inhibition zone at 1 mg/ml measured after overnight incubation by disc diffusion method. To be noted: read-out: IZ.
In experiment [11] the test system is Pseudomonas aeruginosa. The experiment can be described thus: Antibacterial activity against Pseudomonas aeruginosa MTCC 424 by serial dilution method.
The test system of experiment [12] is Candida albicans. Description: Antibacterial activity against Candida albicans MTCC 227 by serial dilution method.
Experiment [13] has as its system Escherichia coli. Description: Antibacterial activity against Escherichia coli MTCC […] by serial dilution method.
Experiment [14] deals with Staphylococcus epidermidis. The experiment can be described thus: Antibacterial activity against Staphylococcus epidermidis MTCC 6880 by serial dilution method.
Experiment [15] relates to Aspergillus niger. The experiment can be described thus: Antibacterial activity against Aspergillus niger MTCC 8189 by serial dilution method.
The subject of experiment [16] is Bacillus subtilis. Description: Antibacterial activity against Bacillus subtilis MTCC 441 by serial dilution method.
In experiment [17] the test system is Staphylococcus aureus. Description: Antibacterial activity against Staphylococcus aureus.
For a further experiment, the system named is Bacillus cereus. The experiment can be described thus: Antibacterial activity against Bacillus cereus.

On to `Cc1nnn(Cc2cc(=O)oc3c4c(ccc23)OCO4)c1C(=O)O`, for which the minimum inhibitory concentration (MIC) was found to be 0.2 µg/mL (≈ 0.607 µM) against Aspergillus niger [1]; 0.2 µg/mL (≈ 0.607 µM) against Escherichia coli [2]; 25 µg/mL (≈ 75.9 µM) against Pseudomonas aeruginosa [3]; 25 µg/mL (≈ 75.9 µM) in the experiment on Bacillus subtilis [4]; 0.2 µg/mL (≈ 0.607 µM) against Candida albicans [5]; 0.2 µg/mL (≈ 0.607 µM) with Staphylococcus aureus [6].
As for `CCOC(=O)c1c(C)nnn1Cc1cc(=O)oc2c3c(ccc12)OCO3`, the MIC was determined as 0.2 µg/mL (≈ 0.56 µM) against Aspergillus niger [1]; 0.2 µg/mL (≈ 0.56 µM) against Escherichia coli [2]; 25 µg/mL (≈ 70 µM) against Pseudomonas aeruginosa [3]; 25 µg/mL (≈ 70 µM) in the experiment on Bacillus subtilis [4]; 0.2 µg/mL (≈ 0.56 µM) in the experiment on Candida albicans [5]; 0.2 µg/mL (≈ 0.56 µM) against Staphylococcus aureus [6].
On to `Cc1nnn(Cc2cc(=O)oc3ccc4c(c23)OCO4)c1C(=O)O`, for which the MIC is 0.2 µg/mL (≈ 0.607 µM) against Aspergillus niger [1]; 0.2 µg/mL (≈ 0.607 µM) in the experiment with Escherichia coli [2]; 25 µg/mL (≈ 75.9 µM) with Pseudomonas aeruginosa [3]; 25 µg/mL (≈ 75.9 µM) with Bacillus subtilis [4]; 0.2 µg/mL (≈ 0.607 µM) in the experiment on Candida albicans [5]; 0.2 µg/mL (≈ 0.607 µM) with Staphylococcus aureus [6].
Regarding `COc1ccc2oc(=O)cc(Cn3nnc(N)c3C#N)c2c1`, the MIC against Aspergillus niger [1] is 0.2 µg/mL (≈ 0.673 µM); with Escherichia coli [2], 0.2 µg/mL (≈ 0.673 µM); in the experiment on Pseudomonas aeruginosa [3], 25 µg/mL (≈ 84.1 µM); with Bacillus subtilis [4] it was 25 µg/mL (≈ 84.1 µM); in the experiment with Candida albicans [5], 0.2 µg/mL (≈ 0.673 µM); against Staphylococcus aureus [6], 0.2 µg/mL (≈ 0.673 µM).
For `CN[C@@H]1[C@H](O[C@H]2[C@H](O[C@H]3[C@H](O)[C@@H](O)[C@H](N=C(N)N)[C@@H](O)[C@@H]3N=C(N)N)O[C@@H](C)[C@]2(O)C=O)O[C@@H](CO)[C@H](O)[C@H]1O` [STREPTOMYCIN], the MIC turned out to be 2 µg/mL (≈ 3.44 µM) against Escherichia coli [2], 4 µg/mL (≈ 6.88 µM) against Pseudomonas aeruginosa [3], 2 µg/mL (≈ 3.44 µM) in the experiment with Bacillus subtilis [4] and 2 µg/mL (≈ 3.44 µM) in the experiment with Staphylococcus aureus [6].
Regarding `Cc1ccccc1-n1cc(CNc2ccccc2-c2nnc(-c3ccccc3)o2)nn1`, the zone of inhibition at 1000 µg/mL with Staphylococcus aureus [7], in the experiment with Bacillus subtilis [8], in the experiment with Escherichia coli [9] and in the experiment with Pseudomonas aeruginosa [10] was 2.5 mm throughout.
Regarding `CCOC(=O)c1c(C)nnn1Cc1cc(=O)oc2ccc(OC)cc12`, the MIC turned out to be 0.2 µg/mL (≈ 0.583 µM) against Aspergillus niger [1]; 0.2 µg/mL (≈ 0.583 µM) in the experiment on Escherichia coli [2]; 25 µg/mL (≈ 72.8 µM) in the experiment on Pseudomonas aeruginosa [3]; 25 µg/mL (≈ 72.8 µM) against Bacillus subtilis [4]; 0.2 µg/mL (≈ 0.583 µM) against Candida albicans [5]; 0.2 µg/mL (≈ 0.583 µM) in the experiment on Staphylococcus aureus [6].
As for `c1ccc(-c2nnc(-c3ccccc3NCc3cn(-c4ccccc4-c4ccc(-c5nnco5)cc4)nn3)o2)cc1`, the zone of inhibition at 1000 µg/mL in the experiment with Staphylococcus aureus [7], in the experiment with Bacillus subtilis [8], in the experiment with Escherichia coli [9] and in the experiment with Pseudomonas aeruginosa [10] was 2.5 mm throughout.
In the case of `COc1ccc(-n2cc(CNc3ccccc3-c3nnc(-c4ccccc4)o3)nn2)c([N+](=O)[O-])c1`, the zone of inhibition at 1000 µg/mL in the experiment on Staphylococcus aureus [7], in the experiment with Bacillus subtilis [8], in the experiment with Escherichia coli [9] and with Pseudomonas aeruginosa [10] was 2.5 mm throughout.
As to `CCOC(=O)c1c(C)nnn1Cc1cc(=O)oc2ccc(C)cc12`, the MIC in the experiment on Aspergillus niger [1] was 0.2 µg/mL (≈ 0.611 µM); against Escherichia coli [2], 0.4 µg/mL (≈ 1.22 µM); against Pseudomonas aeruginosa [3] it was 25 µg/mL (≈ 76.4 µM); against Bacillus subtilis [4], 25 µg/mL (≈ 76.4 µM); against Candida albicans [5], 0.2 µg/mL (≈ 0.611 µM); with Staphylococcus aureus [6], 0.2 µg/mL (≈ 0.611 µM).
For `N#Cc1c(N)nnn1Cc1cc(=O)oc2c3c(ccc12)OCO3`, the MIC against Aspergillus niger [1] was found to be 0.2 µg/mL (≈ 0.643 µM); in the experiment on Escherichia coli [2], 0.2 µg/mL (≈ 0.643 µM); in the experiment with Pseudomonas aeruginosa [3], 25 µg/mL (≈ 80.3 µM); in the experiment on Bacillus subtilis [4], 25 µg/mL (≈ 80.3 µM); in the experiment on Candida albicans [5], 0.2 µg/mL (≈ 0.643 µM); in the experiment with Staphylococcus aureus [6] it was 0.2 µg/mL (≈ 0.643 µM).
Take `CCOC(=O)c1c(C)nnn1Cc1cc(=O)oc2cc(C)ccc12`: the MIC in the experiment on Aspergillus niger [1] was 0.2 µg/mL (≈ 0.611 µM); in the experiment on Escherichia coli [2] it was 0.2 µg/mL (≈ 0.611 µM); against Pseudomonas aeruginosa [3] it was 25 µg/mL (≈ 76.4 µM); in the experiment with Bacillus subtilis [4], 25 µg/mL (≈ 76.4 µM); against Candida albicans [5], 0.2 µg/mL (≈ 0.611 µM); against Staphylococcus aureus [6], 0.2 µg/mL (≈ 0.611 µM).
As for `O=[N+]([O-])c1cccc(-n2cc(CNc3ccccc3-c3nnc(-c4ccccc4)o3)nn2)c1`, the zone of inhibition at 1000 µg/mL in the experiment with Staphylococcus aureus [7], in the experiment on Bacillus subtilis [8], with Escherichia coli [9] and with Pseudomonas aeruginosa [10] was 2.5 mm each time.
On to `Cc1ccc(Cn2cc(COc3ccc(/C=C/C(=O)c4c(O)cc(C)oc4=O)cc3)nn2)cc1`, for which the MIC (with Pseudomonas aeruginosa [11]; in the experiment on Candida albicans [12]; in the experiment on Escherichia coli [13]; in [14]; against Aspergillus niger [15]; in the experiment with Bacillus subtilis [16]) was 3 µM (≈ 1.37 µg/mL) in each case.
For `CC(C)C[C@H](NC(=O)CNC(=O)C(C)(C)NC(=O)[C@@H](NC(=O)C(C)(C)NC(=O)[C@H](CCC(N)=O)NC(=O)[C@H](C)NC(=O)C(C)(C)NC(=O)[C@H](C)NC(=O)C(C)(C)NC(=O)[C@@H]1CCN(C(=O)C(C)(C)C(=O)c2ccc(C(F)(F)F)cc2)C1)C(C)C)C(=O)NC(C)(C)C(=O)N1CCC[C@H]1C(=O)N[C@H](C(=O)NC(C)(C)C(=O)NC(C)(C)C(=O)N[C@@H](CCC(N)=O)C(=O)N[C@@H](CCC(N)=O)C(=O)N[C@H](CO)Cc1ccccc1)C(C)C` (X1-[βPro(3R)][Aib]A[Aib]AQ[Aib]V[Aib]GL[Aib]PV[Aib][Aib]QQ[Phe(ol)]), the MIC amounted to 1.56 µg/mL (≈ 0.751 µM) against Staphylococcus aureus [17] and 12.5 µg/mL (≈ 6.01 µM) with Bacillus cereus.

For the origin of these results see ChEMBL document CHEMBL4699440, “Comprehensive review on the anti-bacterial activity of 1,2,3-triazole hybrids” (Eur J Med Chem, 2019).
